The results in this text go back to patent publication US9399646B2 (Genentech, Inc., priority 2010, dated 2016).

Molecules are shown by their SMILES. A value given as a limit tells only on which side of the number the result lay.

One assay deals with MCF-7 cells. Nature of the assay: Breast cancer cell viability assay (CellTiter-Glo, 5 days). Type of assay: cell-based. As to conditions: 5 days' compound exposure; for IC50: Homo sapiens, MCF7, 120 h. In short, it runs like this: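 Eleven-point semilog compound series, final 0.3-0.000003 μM, added to overnight-adhered MCF-7 cells (320/well; RPMI, 10% FBS, 20 mM HEPES) for 5 days. Viability read by CellTiter-Glo luminescence, background from medium without cells subtracted, expressed relative to untreated cells.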

Another assay deals with T1, ER-α in MCF-7 cells (Homo sapiens, UniProt P03372).
T1 sequence (P03372 1-595): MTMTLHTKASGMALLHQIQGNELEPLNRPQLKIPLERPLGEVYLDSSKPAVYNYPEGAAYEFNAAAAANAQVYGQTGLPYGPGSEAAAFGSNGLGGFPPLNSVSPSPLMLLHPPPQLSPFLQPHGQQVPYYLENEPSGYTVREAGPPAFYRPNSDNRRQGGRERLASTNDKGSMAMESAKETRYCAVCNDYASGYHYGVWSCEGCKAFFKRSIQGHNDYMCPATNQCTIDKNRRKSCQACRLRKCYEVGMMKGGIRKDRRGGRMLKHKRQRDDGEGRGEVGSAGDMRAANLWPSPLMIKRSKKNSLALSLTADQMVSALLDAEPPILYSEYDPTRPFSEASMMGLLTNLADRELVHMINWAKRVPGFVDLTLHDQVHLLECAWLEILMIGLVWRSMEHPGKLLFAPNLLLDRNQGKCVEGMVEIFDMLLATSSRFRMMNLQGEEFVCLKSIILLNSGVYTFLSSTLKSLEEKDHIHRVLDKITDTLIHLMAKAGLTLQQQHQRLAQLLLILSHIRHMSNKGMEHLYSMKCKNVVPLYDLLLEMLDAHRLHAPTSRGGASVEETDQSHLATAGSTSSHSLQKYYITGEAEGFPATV
As to the kind of experiment: Breast cancer cell ER-α in cell western assay (SP1). Type of assay: cell-based. Set-up: endogenous in cells; host or cells: MCF-7. As to conditions: 4 or 24 hr post compound addition; for Emax: MCF7, SP1 antibody, read-out: ER-α In Cell Western Assay (SP1) Max Response; for DC50: SP1 antibody, read-out: ER-α In Cell Western Assay (SP1) IC50. An outline of the steps:
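MCF-7, charcoal-stripped FBS/RPMI, 3200 cells/well, adhered overnight. Formalin fix, SP1 Ab o/n 4 °C, IRDye 800CW + DRAQ5; % ER = 800/700 ratio vs untreated.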

Take `CNC(=O)/C=C/c1ccc(/C(=C(\c2ccccc2)C2CCC2)c2ccc3c(cnn3C)c2)cc1` [Compound 411, (E)-3-(4-((E)-2-Cyclobutyl-1-(1-methyl-1H-indazol-5-yl)-2-phenylvinyl)phenyl)-N-methylacrylamide]: in the assay with MCF-7 cells, the “MCF7 Viability Assay Max Response” value is “++ (++ = a single % value ≧ 40%)” and the IC50 is at most 100 nM. At ER-α in MCF-7 cells, the Emax was at least 40% and the DC50 is at most 100 nM.
`CC/C(=C(/c1ccc(/C=C/C(=O)O)cc1)c1ccc2cn[nH]c2c1)c1ccccc1` [Compound 5, (E)-3-(4-((E)-1-(1H-Indazol-6-yl)-2-phenylbut-1-en-1-yl)phenyl)acrylic acid]: in the assay with MCF-7 cells, the “MCF7 Viability Assay Max Response” value is given as “++ (++ = a single % value ≧ 40%)” and the 50% inhibitory concentration (IC50) was over 100 nM. Moreover, the Emax on ER-α in MCF-7 cells was at least 40%.
Consider `CC/C(=C(/c1ccc(/C=C/C(=O)O)cc1)c1ccc2[nH]ncc2c1)c1cccc(N2CCCC2)c1` [Compound 249], for which, in the assay on MCF-7 cells, the “MCF7 Viability Assay Max Response” value is given as “++ (++ = a single % value ≧ 40%)” and the IC50 was over 100 nM. Further, at ER-α in MCF-7 cells, the Emax was at least 40% and the DC50 was at most 100 nM.
In the case of `Cc1cscc1/C(CC(C)C)=C(\c1ccc(/C=C/C(=O)O)cc1)c1ccc2[nH]ncc2c1` [Compound 257, (E)-3-(4-((E)-1-(1H-Indazol-5-l)-4-methyl-2-(4-methylthiophen-3-yl)pent-1-en-1-yl)phenyl)acrylic acid], in the assay with MCF-7 cells, the “MCF7 Viability Assay Max Response” value is “++ (++ = a single % value ≧ 40%)” and the IC50 is at most 100 nM. Moreover, at ER-α in MCF-7 cells, the Emax is at least 40% and the DC50 is at most 100 nM.
Regarding `CC/C(=C(/c1ccc(/C=C/C(=O)O)cc1)c1ccc2[nH]ncc2c1)c1cc(C)sc1C` [Compound 274, (E)-3-(4-((E)-2-(2,5-Dimethylthiophen-3-yl)-1-(1H-indazol-5-yl)but-1-en-1-yl)phenyl)acrylic acid], in the assay with MCF-7 cells, the “MCF7 Viability Assay Max Response” value is “++ (++ = a single % value ≧ 40%)” and the IC50 was at most 100 nM. Besides, on ER-α in MCF-7 cells, the Emax was at least 40% and the DC50 is at most 100 nM.
Regarding `CC/C(=C(/c1ccc(-c2cc(O)on2)cc1)c1ccc2[nH]ncc2c1)c1ccc(F)cc1Cl` [Compound 334, (E)-3-(4-(2-(2-Chloro-4-fluorophenyl)-1-(1H-indazol-5-yl)but-1-en-1-yl)phenyl)isoxazol-5-ol], in the assay with MCF-7 cells, the “MCF7 Viability Assay Max Response” value is listed as “+ (+ = a single % value < 40%)” and the IC50 was over 100 nM. Moreover, on ER-α in MCF-7 cells, the Emax was at least 40% and the DC50 is at most 100 nM.
With `CC/C(=C(/c1ccc(/C=C/C(=O)O)cc1)c1ccc2[nH]ncc2c1)c1cccs1` [Compound 23, (E)-3-(4-((E)-1-(1H-Indazol-5-yl)-2-(thiophen-2-yl)but-1-en-1-yl)phenyl)acrylic acid], in the assay on MCF-7 cells, the “MCF7 Viability Assay Max Response” value is reported as “++ (++ = a single % value ≧ 40%)” and the concentration for half-maximal inhibition (IC50) is at most 100 nM. On ER-α in MCF-7 cells, the Emax is at least 40% and the DC50 was at most 100 nM.
Regarding `CC/C(=C(/c1ccc(/C=C/C(=O)O)cc1)c1coc2c(OC)cccc12)c1ccc(F)cc1Cl` [Compound 164, (E)-3-(4-((E)-2-(2-Chloro-4-fluorophenyl)-1-(7-methoxybenzofuran-3-yl)but-1-en-1-yl)phenyl)acrylic acid], in the assay with MCF-7 cells, the “MCF7 Viability Assay Max Response” value is reported as “++ (++ = a single % value ≧ 40%)” and the IC50 was at most 100 nM. In addition, at ER-α in MCF-7 cells, the Emax was at least 40% and the DC50 was at most 100 nM.
As for `CC/C(=C(/c1ccc(/C=C/C(=O)O)cc1)c1ccc2[nH]ncc2c1)c1ccc(Oc2ncccn2)cc1` [Compound 290, (E)-3-(4-((E)-1-(1H-Indazol-5-yl)-2-(4-(pyrimidin-2-yloxy)phenyl)but-1-en-1-yl)phenyl)acrylic acid], in the assay with MCF-7 cells, the “MCF7 Viability Assay Max Response” value is listed as “++ (++ = a single % value ≧ 40%)” and the 50% inhibitory concentration (IC50) is at most 100 nM. Further, on ER-α in MCF-7 cells, the Emax is at least 40% and the DC50 was at most 100 nM.
`CC/C(=C(/c1ccc(/C=C/C(=O)O)cc1)c1cccc2[nH]c(=O)ccc12)c1ccccc1` [Compound 102, (E)-3-(4-((E)-1-(2-Oxo-1,2-dihydroquinolin-5-yl)-2-phenylbut-1-en-1-yl)phenyl)acrylic acid]: in the assay with MCF-7 cells, the “MCF7 Viability Assay Max Response” value is given as “+ (+ = a single % value < 40%)” and the concentration for half-maximal inhibition (IC50) was over 100 nM. Further, at ER-α in MCF-7 cells, the Emax is at least 40% and the DC50 is over 100 nM.
With `CC/C(=C(/c1ccc(/C=C/C(=O)O)cc1)c1cccc2[nH]ncc12)c1ccccc1F` [Compound 31, (E)-3-(4-((E)-2-(2-Fluorophenyl)-1-(1H-indazol-4-yl)but-1-en-1-yl)phenyl)acrylic acid], in the assay on MCF-7 cells, the “MCF7 Viability Assay Max Response” value is reported as “++ (++ = a single % value ≧ 40%)” and the IC50 is at most 100 nM. On ER-α in MCF-7 cells, the Emax was at least 40% and the DC50 was at most 100 nM.
Regarding `O=C(O)/C=C/c1ccc(/C(=C(\c2ccccc2)C2CC2)c2cccc3[nH]ncc23)cc1` [Compound 70, (E)-3-(4-((E)-2-Cyclopropyl-1-(1H-indazol-4-yl)-2-phenylvinyl)phenyl)acrylic acid], in the assay on MCF-7 cells, the “MCF7 Viability Assay Max Response” value is listed as “++ (++ = a single % value ≧ 40%)” and the IC50 was at most 100 nM. Further, at ER-α in MCF-7 cells, the Emax is at least 40% and the DC50 was at most 100 nM.
For `O=C(O)/C=C/c1ccc(/C(=C(\c2ccncc2Cl)C2CCC2)c2ccc3[nH]nc(F)c3c2)cc1` [Compound 307, (E)-3-(4-((E)-2-(3-Chloropyridin-4-yl)-2-cyclobutyl-1-(3-fluoro-1H-indazol-5-yl)vinyl)phenyl)acrylic acid], in the assay with MCF-7 cells, the “MCF7 Viability Assay Max Response” value is “++ (++ = a single % value ≧ 40%)” and the IC50 is at most 100 nM. On ER-α in MCF-7 cells, the Emax was at least 40% and the DC50 is at most 100 nM.
For `CC/C(=C(/c1ccc(/C=C/C(N)=O)cc1)c1ccc2scnc2c1)c1ccccc1` [Compound 426, (E)-3-(4-((E)-1-(Benzo[d]thiazol-5-yl)-2-phenylbut-1-en-1-yl)phenyl)acrylamide], in the assay with MCF-7 cells, the “MCF7 Viability Assay Max Response” value was “++ (++ = a single % value ≧ 40%)” and the IC50 is at most 100 nM. At ER-α in MCF-7 cells, the Emax was at least 40% and the DC50 is at most 100 nM.
As for `CC/C(=C(/c1ccc(/C=C/c2nn[nH]n2)cc1)c1ccc2[nH]ncc2c1)c1ccccc1Cl` [Compound 443, 5-((E)-1-(4-((E)-2-(2H-Tetrazol-5-yl)vinyl)phenyl)-2-(2-chlorophenyl)but-1-en-1-yl)-1H-indazole], in the assay with MCF-7 cells, the “MCF7 Viability Assay Max Response” value was “++ (++ = a single % value ≧ 40%)” and the concentration for half-maximal inhibition (IC50) was at most 100 nM. In addition, at ER-α in MCF-7 cells, the Emax is at least 40% and the DC50 was at most 100 nM.
Take `CC/C(=C(/c1ccc(/C=C/C(=O)NS(=O)(=O)c2ccncc2)cc1)c1ccc2[nH]ncc2c1)c1ccc(F)cc1Cl` [Compound 434, (E)-3-(4-((E)-2-(2-Chloro-4-fluorophenyl)-1-(1H-indazol-5-yl)but-1-en-1-yl)phenyl)-N-(pyridin-4-ylsulfonyl)acrylamide]: in the assay on MCF-7 cells, the “MCF7 Viability Assay Max Response” value is recorded as “++ (++ = a single % value ≧ 40%)” and the IC50 is at most 100 nM. At ER-α in MCF-7 cells, the Emax is at least 40% and the DC50 was at most 100 nM.
In the case of `O=C(/C=C/c1ccc(/C(=C(\c2ccccc2)C2CCC2)c2ccc3[nH]nc(F)c3c2)cc1)NCCO` [Compound 414, (E)-3-(4-((E)-2-Cyclobutyl-1-(3-fluoro-1H-indazol-5-yl)-2-phenylvinyl)phenyl)-N-(2-hydroxyethyl)acrylamide], in the assay on MCF-7 cells, the “MCF7 Viability Assay Max Response” value is reported as “++ (++ = a single % value ≧ 40%)” and the IC50 was at most 100 nM. Moreover, at ER-α in MCF-7 cells, the Emax is at least 40% and the DC50 is at most 100 nM.
As for `CC/C(=C(/c1ccc(/C=C/C(=O)O)cc1)c1ccc2[nH]ncc2c1)c1cccc(Oc2ccc(S(C)(=O)=O)cn2)c1` [Compound 379, (E)-3-(4-((E)-1-(1H-Indazol-5-yl)-2-(3-((5-(methylsulfonyl)pyridin-2-yl)oxy)phenyl)but-1-en-1-yl)phenyl)acrylic acid], in the assay on MCF-7 cells, the “MCF7 Viability Assay Max Response” value is recorded as “++ (++ = a single % value ≧ 40%)” and the IC50 is at most 100 nM. At ER-α in MCF-7 cells, the Emax is at least 40% and the DC50 is at most 100 nM.
Consider `CC/C(=C(/c1ccc(/C=C/C(=O)O)cc1)c1ccc2c(c1)OCC(=O)N2)c1ccccc1` [Compound 107, (E)-3-(4-((E)-1-(3-Oxo-3,4-dihydro-2H-benzo[b][1,4]oxazin-7-yl)-2-phenylbut-1-en-1-yl)phenyl)acrylic acid], for which, in the assay on MCF-7 cells, the “MCF7 Viability Assay Max Response” value was “++ (++ = a single % value ≧ 40%)” and the IC50 was over 100 nM. Moreover, at ER-α in MCF-7 cells, the Emax was at least 40% and the DC50 is over 100 nM.
